Patent publication US20230183237A1, “COMPETITIVE AND NONCOMPETITIVE INHIBITORS OF THE MUSCARINIC ACETYLCHOLINE RECEPTOR M5” (Vanderbilt University, priority 2020, published 2023)
pIC50: −log10 of the molar value. Read-outs that look alike come from different tables or passages of the source.

Target: T1, hM5 (Homo sapiens, UniProt P08912)
T1 construct: expressed in transfected cells
T1 sequence (P08912 1-532): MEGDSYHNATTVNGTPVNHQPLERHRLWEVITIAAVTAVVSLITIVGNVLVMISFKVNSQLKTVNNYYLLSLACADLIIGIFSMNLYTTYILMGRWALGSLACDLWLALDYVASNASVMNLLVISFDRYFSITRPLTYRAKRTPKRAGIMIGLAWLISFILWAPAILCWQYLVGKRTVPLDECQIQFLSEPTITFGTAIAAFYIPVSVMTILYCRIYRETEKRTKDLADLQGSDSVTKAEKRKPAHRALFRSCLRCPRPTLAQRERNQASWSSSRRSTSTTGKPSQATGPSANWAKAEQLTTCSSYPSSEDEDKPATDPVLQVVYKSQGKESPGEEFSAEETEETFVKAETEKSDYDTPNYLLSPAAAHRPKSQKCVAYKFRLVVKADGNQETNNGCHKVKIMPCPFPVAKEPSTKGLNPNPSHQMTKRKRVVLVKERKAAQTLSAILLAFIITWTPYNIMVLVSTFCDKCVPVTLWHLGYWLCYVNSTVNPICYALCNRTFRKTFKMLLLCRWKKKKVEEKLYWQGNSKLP
Test: Calcium mobilization concentration-response (IC50 vs EC80 acetylcholine), CHO hM5
Type: cell-based
Details: CELL LINE hM5, read-out: IC50
Summary of the method: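 IC50 values derive from percent maximal acetylcholine response after an EC80 ACh addition, measured as kinetic calcium fluorescence (static ratio, max−min). Test compounds were added 140 s before agonist. Cells: stable hM5-CHO in HEPES-buffered HBSS with 2.5 mM probenecid, pH 7.4; ≥3 independent triplicate determinations.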

[1] = calcium mobilization, EC80 acetylcholine addition

| pIC50 [1] | pIC50 (vs EC80 acetylcholine) | Compound |
| --- | --- | --- |
| < 5.00 |  | [2H]C1([2H])Oc2ccc(S(=O)(=O)N3CCC(c4cn5nc(C)nc5cc4C)CC3)cc2C1([2H])[2H] [Compound 91, 6-(1-((2,3-dihydrobenzofuran-5-yl-2,2,3,3-d4)sulfonyl)piperidin-4-yl)-2,7-dimethyl-[1,2,4]triazolo[1,5-a]pyridine] |
|  | 7.40 | [2H]c1nc2cc(Cl)c(C3=CCN(S(=O)(=O)c4cnc(C)o4)CC3)cn2n1 [Compound 610, 5-((4-(7-chloro-[1,2,4]triazolo[1,5-a]pyridin-6-yl-2-d)-3,6-dihydropyridin-1(2H)-yl)sulfonyl)-2-methyloxazole] |
| < 5.00 |  | COc1cc(C2CCN(S(=O)(=O)c3ccc4c(c3)CCO4)CC2)cn2ncnc12 [Compound 114, 6-(1-((2,3-dihydrobenzofuran-5-yl)sulfonyl)piperidin-4-yl)-8-methoxy-[1,2,4]triazolo[1,5-a]pyridine] |
| 5.70 |  | Cc1ncc(S(=O)(=O)N2CCC(c3ccc4ncnn4c3)CC2)n1C [Compound 286, 6-(1-((1,2-dimethyl-1H-imidazol-5-yl)sulfonyl)piperidin-4-yl)-[1,2,4]triazolo[1,5-a]pyridine] |
|  | 7.57 | COc1c(S(=O)(=O)N2CCC(c3cn4ncnc4cc3Cl)CC2)c(I)nn1C (single isomer, unassigned) [Compound 625, 7-Chloro-6-(1-((3-iodo-5-methoxy-1-methyl-1H-pyrazol-4-yl)sulfonyl)piperidin4-yl)-[1,2,4]triazolo[1,5-a]pyridine] |
|  | 6.11 | [2H]C1([2H])CC(c2cn3ncnc3cc2C(F)F)CC([2H])([2H])N1S(=O)(=O)c1cn(C)nn1 [Compound 595, 7-(difluoromethyl)-6-(1-((1-methyl-1H-1,2,3-triazol-4-yl)sulfonyl)piperidin-4-yl-2,2,6,6-d4)-[1,2,4]triazolo[1,5-a]pyridine] |
| < 5.00 |  | O=S(=O)(c1ccc2ncsc2c1)N1CCC(c2cc3[nH]ncc3cn2)CC1 [Compound 19, 6-((4-(1H-pyrazolo[4,3-c]pyridin-6-yl)piperidin-1-yl)sulfonyl)benzo[d]thiazole] |
|  | < 5.00 | Cc1c(S(=O)(=O)N2CCC(c3cn4ncnc4cc3C(C)(C)O)CC2)cnn1C [Compound 472, 2-(6-(1-((1,5-dimethyl-1H-pyrazol-4-yl)sulfonyl)piperidin-4-yl)-[1,2,4]triazolo[1,5-a]pyridin-7-yl)propan-2-ol] |
|  | < 5.00 | Cc1nnc(S(=O)(=O)N2CCC(c3cn4ncnc4cc3Cl)CC2)[nH]1 [Compound 599, 7-chloro-6-(1-((5-methyl-4H-1,2,4-triazol-3-yl)sulfonyl)piperidin-4-yl)-[1,2,4]triazolo[1,5-a]pyridine] |
| 5.80 |  | Cc1cc2ncnn2nc1C1CCN(S(=O)(=O)c2ccc3c(c2)N(C)CCO3)CC1 [Compound 166, 4-methyl-6-((4-(7-methyl-[1,2,4]triazolo[1,5-b]pyridazin-6-yl)piperidin-1-yl)sulfonyl)-3,4-dihydro-2H-benzo[b][1,4]oxazine] |
|  | < 5.00 | Cn1cc(S(=O)(=O)N2CCC(c3cn4ncnc4cc3F)CC2)nn1 [Compound 571, 7-fluoro-6-(1-((1-methyl-1H-1,2,3-triazol-4-yl)sulfonyl)piperidin-4-yl)-[1,2,4]triazolo[1,5-a]pyridine] |
|  | < 5.00 | Cc1c(S(=O)(=O)N2CCC(c3cn4ncnc4cc3C(=O)O)CC2)cnn1C [Compound 479, 6-(1-((1,5-dimethyl-1H-pyrazol-4-yl)sulfonyl)piperidin-4-yl)-[1,2,4]triazolo[1,5-a]pyridine-7-carboxylic acid] |
| < 5.00 |  | O=S(=O)(c1ccc2c(c1)CCO2)N1CCC(c2ccc3ncnn3c2)CC1 [Compound 60, 6-(1-((2,3-dihydrobenzofuran-5-yl)sulfonyl)piperidin-4-yl)-[1,2,4]triazolo[1,5-a]pyridine] |
| < 5.00 |  | Cc1cc(C#N)ncc1C1=CCN(S(=O)(=O)c2cnn(C)c2C)CC1 [Compound 239, 1′-((1,5-dimethyl-1H-pyrazol-4-yl)sulfonyl)-4-methyl-1′,2′,3′,6′-tetrahydro-[3,4′-bipyridine]-6-carbonitrile] |
|  | 6.73 | O=S(=O)(c1cnc2sccn12)N1CCC(c2cn3ncnc3cc2F)CC1 [Compound 525, 5-((4-(7-fluoro-[1,2,4]triazolo[1,5-a]pyridin-6-yl)piperidin-1-yl)sulfonyl)imidazo[2,1-b]thiazole] |
| 6.18 |  | Cc1ncc(S(=O)(=O)N2CC=C(c3cc4ncnn4cc3Cl)CC2)n1C [Compound 223, 6-chloro-7-(1-((1,2-dimethyl-1H-imidazol-5-yl)sulfonyl)-1,2,3,6-tetrahydropyridin-4-yl)-[1,2,4]triazolo[1,5-a]pyridine] |

| pIC50 [1] | pIC50 (vs EC80 acetylcholine) | Compound |
| --- | --- | --- |
|  | 5.80 | O=S(=O)(c1cnc(Cl)s1)N1CCC(c2cn3ncnc3cc2C(F)(F)F)CC1 [Compound 519, 2-chloro-5-((4-(7-(trifluoromethyl)-[1,2,4]triazolo[1,5-a]pyridin-6-yl)piperidin-1-yl)sulfonyl)thiazole] |
| 5.89 |  | Cc1cc2nccn2cc1C1CCN(S(=O)(=O)c2ccc3c(c2)CCO3)CC1 [Compound 66, 6-(1-((2,3-dihydrobenzofuran-5-yl)sulfonyl)piperidin-4-yl)-7-methylimidazo[1,2-a]pyridine] |
| 6.69 |  | Cc1cc2ncnn2cc1C1CCN(S(=O)(=O)c2c(F)cc3c(c2F)C(C)CO3)CC1 (centres unmarked) [Compound 116, 6-(1-((4,6-difluoro-3-methyl-2,3-dihydrobenzofuran-5-yl)sulfonyl)piperidin-4-yl)-7-methyl-[1,2,4]triazolo[1,5-a]pyridine] |
|  | 6.69 | Cn1ncc(S(=O)(=O)N2CCC(c3cn4ncnc4cc3C(F)(F)F)CC2)c1CC#N [Compound 410, 2-(1-methyl-4-((4-(7-(trifluoromethyl)-[1,2,4]triazolo[1,5-a]pyridin-6-yl)piperidin-1-yl)sulfonyl)-1H-pyrazol-5-yl)acetonitrile] |
|  | 6.76 | Cc1cc2ncnn2cc1C1CCN(S(=O)(=O)c2cnn3cccnc23)CC1 [Compound 442, 7-methyl-6-(1-(pyrazolo[1,5-a]pyrimidin-3-ylsulfonyl)piperidin-4-yl)-[1,2,4]triazolo[1,5-a]pyridine] |
| 7.05 |  | [2H]C([2H])([2H])n1nc(Cl)c(S(=O)(=O)N2CCC(c3cn4ncnc4cc3F)CC2)c1C [Compound 257, 6-(1-((3-chloro-5-methyl-1-(methyl-d3)-1H-pyrazol-4-yl)sulfonyl)piperidin-4-yl)-7-fluoro-[1,2,4]triazolo[1,5-a]pyridine] |
| 6.69 |  | [2H]C1([2H])Oc2cc(C)c(C3CCN(S(=O)(=O)c4cnn(C)c4Cl)CC3)cc2OC1([2H])[2H] [Compound 390, 1-((5-chloro-1-methyl-1H-pyrdzol-4-yl)sulfonyl)-4-(7-methyl-2,3-dihydrobenzo[b][1,4]dioxin-6-yl-2,2,3,3-d4)piperidine] |
|  | < 5.00 | CO[C@H]1CN(S(=O)(=O)c2cnn(C)c2Cl)CC[C@@H]1c1cn2ncnc2cc1C (single isomer, unassigned) [Compound 460] |
| 7.89 |  | Cc1cc2ncnn2cc1C1CCN(S(=O)(=O)c2c(Cl)nc3sccn23)CC1 [Compound 324, 6-chloro-5-((4-(7-methyl-[1,2,4]triazolo[1,5-a]pyridin-6-yl)piperidin-1-yl)sulfonyl)imidazo[2,1-b]thiazole] |
|  | 7.60 | Cc1cc2nccn2cc1C1CCN(S(=O)(=O)c2cnn(C)c2Cl)CC1 [Compound 581, 6-(1-((5-chloro-1-methyl-1H-pyrazol-4-yl)sulfonyl)piperidin-4-yl)-7-methylimidazo[1,2-a]pyridine] |
|  | 7.49 | Cc1cnc2ccccc2c1C1=CCN(S(=O)(=O)c2cnn(C)c2Cl)CC1 [Compound 427, 4-(1-((5-chloro-1-methyl-1H-pyrazol-4-yl)sulfonyl)-1,2,3,6-tetrahydropyridin-4-yl)-3-methylquinoline] |
|  | 5.50 | Cc1ncc(S(=O)(=O)N2CCC(F)(c3cn4ncnc4cc3C)CC2)o1 [Compound 560, 5-((4-fluoro-4-(7-methyl-[1,2,4]triazolo[1,5-a]pyridin-6-yl)piperidin-1-yl)sulfonyl)-2-methyloxazole] |
|  | 7.33 | [2H]C1([2H])CC(c2cn3ncnc3cc2C)CC([2H])([2H])N1S(=O)(=O)c1cnc(C)o1 [Compound 568, 2-methyl-5-((4-(7-methyl-[1,2,4]triazolo[1,5-a]pyridin-6-yl)piperidin-1-yl-2,2,6,6-d4)sulfonyl)oxazole] |
|  | 6.56 | Cc1nc2n(c1C1CCN(S(=O)(=O)c3cnn(C)c3C)CC1)CCCC2 [Compound 464, 3-(1-((1,5-dimethyl-1H-pyrazol-4-yl)sulfonyl)piperidin-4-yl)-2-methyl-5,6,7,8-tetrahydroimidazo[1,2-a]pyridine] |
|  | < 5.00 | O=S(=O)(c1cnn2cccnc12)N1CCC(c2cn3ncnc3cc2F)CC1 [Compound 443, 7-fluoro-6-(1-(pyrazolo[1,5-a]pyrimidin-3-ylsulfonyl)piperidin-4-yl)-[1,2,4]triazolo[1,5-a]pyridine] |
| 5.86 |  | Cc1ncc(S(=O)(=O)N2CCC(c3ccc4c(c3)OCO4)CC2)n1C [Compound 358, 4-(benzo[d][1,3]dioxol-5-yl)-1-((1,2-dimethyl-1H-imidazol-5-yl)sulfonyl)piperidine] |
